Legend:
Format in all cases: biochemical
Details in all cases: enzyme
IRAK-1 = target: T1, IRAK-1 (Homo sapiens, UniProt P51617); experiment: Test for the inhibition of IRAK1 (autophosphorylation, flashplate)
T1 construct: His6 (N); Dr.Jaekel Pool B, 232Y08C1.IRK
Procedure: (§1) The experimental batches are carried out in a flashplate system with 384 wells/microtitre plate. In each case, in order to investigate the inhibition of the autophosphorylation activity of IRAK1, the IRAK1 sample His6-IRAK1 (5.1 nM), 1 μM ATP (with 0.25 μCi of ^33P-ATP/well) and the test substance in 50 μl of conventional experimental solution per well are incubated at 22° C. for 180 min. The test substances are employed in corresponding concentrations (if desired in a dilution series). The control is carried out without test substance. The reaction is stopped using standard methods and washed. The activity of the kinase is measured via the incorporated radioactivity in top count. In order to determine the non-specific kinase reaction (blank value), the experimental batches are carried out in the presence of 1 μM staurosporin. The radioactivity (decompositions per minute) of the blank value (no use of test substance in the presence of 1 μM staurosporin) is subtracted from all other radioactivity values. The controls (kinase activity without test substance) are set equal to 100 percent and all other radioactivity values (after subtracting the blank value) are expressed set in relation thereto (for example in % of the control). IC50 values (50% inhibition) are determined with the aid of statistics programs, such as, for example, RS1.

IRAK-4 = target: T2, IRAK-4 (Homo sapiens, UniProt Q9NWZ3); experiment: Test for the inhibition of IRAK4 (flashplate, 33P-ATP)
T2 construct: His6 (N); Dr.Jaekel
T2 sequence (Q9NWZ3 1-460): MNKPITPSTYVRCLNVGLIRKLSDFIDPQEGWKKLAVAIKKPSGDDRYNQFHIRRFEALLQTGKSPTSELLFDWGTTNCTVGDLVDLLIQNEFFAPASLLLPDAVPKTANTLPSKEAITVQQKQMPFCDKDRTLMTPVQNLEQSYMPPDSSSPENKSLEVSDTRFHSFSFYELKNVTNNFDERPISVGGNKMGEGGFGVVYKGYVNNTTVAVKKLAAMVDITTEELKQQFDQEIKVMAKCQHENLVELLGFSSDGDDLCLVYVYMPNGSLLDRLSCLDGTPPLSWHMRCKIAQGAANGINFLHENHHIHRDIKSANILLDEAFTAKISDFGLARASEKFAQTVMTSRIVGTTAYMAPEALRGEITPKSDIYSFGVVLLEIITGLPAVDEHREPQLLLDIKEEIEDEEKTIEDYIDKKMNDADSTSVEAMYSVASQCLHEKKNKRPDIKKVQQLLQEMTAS
Procedure: as §1, with “case,” for “case, in order to investigate”, “the IRAK4 sample His6-IRAK4 (7.3 nM),” for “the inhibition of”, “the biotinylated substrate peptide STK substrate 1-biotin (Cisbio Bioassays, France) (300” for “the autophosphorylation activity of IRAK1, the IRAK1 sample His6-IRAK1 (5.1”, “nM), 10” for “nM), 1”

PDK1 = target: T3, PDK1 (Homo sapiens, UniProt O15530); experiment: Test for the inhibition of PDK1 (flashplate, 33P-ATP)
T3 construct: His6 (N)
T3 sequence (O15530 51-556 limits assumed): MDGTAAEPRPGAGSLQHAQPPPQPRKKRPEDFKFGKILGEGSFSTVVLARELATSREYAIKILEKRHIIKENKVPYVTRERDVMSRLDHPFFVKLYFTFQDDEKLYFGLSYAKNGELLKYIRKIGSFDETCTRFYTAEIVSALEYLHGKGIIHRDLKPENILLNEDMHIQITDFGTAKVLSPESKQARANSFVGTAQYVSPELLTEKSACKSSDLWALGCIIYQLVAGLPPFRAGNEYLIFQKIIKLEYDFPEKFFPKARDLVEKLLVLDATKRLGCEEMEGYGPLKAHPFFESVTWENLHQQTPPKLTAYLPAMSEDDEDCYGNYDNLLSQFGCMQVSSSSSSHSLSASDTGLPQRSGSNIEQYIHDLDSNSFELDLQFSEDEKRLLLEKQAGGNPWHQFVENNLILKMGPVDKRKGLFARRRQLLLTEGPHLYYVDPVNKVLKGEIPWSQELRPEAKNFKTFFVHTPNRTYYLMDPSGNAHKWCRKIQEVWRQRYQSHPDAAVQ
Procedure: The experimental batches are carried out in a flashplate system with 384 wells/microtitration plate.
In each case, the PDK1 sample His6-PDK1(1-50)(3.4 nM), the PDK1 substrate biotin-bA-bA-[…] (400 nM), 4 μM ATP (with 0.2 μCi of ^33P-ATP/well) and the test substance in 50 μl of conventional experimental solution per well are incubated at 30° C. for 60 min. The test substances are employed in corresponding concentrations (if desired in a dilution series). The control is carried out without test substance. The reaction is stopped using standard methods and washed. The activity of the kinase is measured via the incorporated radioactivity in top count. In order to determine the non-specific kinase reaction (blank value), the experimental batches are carried out in the presence of 100 nM staurosporin.
The radioactivity (decompositions per minute) of the blank value (no use of test substance in the presence of staurosporin) is subtracted from all other radioactivity values. The controls (kinase activity without test substance) are set equal to 100 percent and all other radioactivity values (after subtracting the blank value) are expressed set in relation thereto (for example in % of the control).
IC50 values (50% inhibition) are determined with the aid of statistics programmes, such as, for example, RS1.

T1 sequence (P51617 whole entry, species assumed): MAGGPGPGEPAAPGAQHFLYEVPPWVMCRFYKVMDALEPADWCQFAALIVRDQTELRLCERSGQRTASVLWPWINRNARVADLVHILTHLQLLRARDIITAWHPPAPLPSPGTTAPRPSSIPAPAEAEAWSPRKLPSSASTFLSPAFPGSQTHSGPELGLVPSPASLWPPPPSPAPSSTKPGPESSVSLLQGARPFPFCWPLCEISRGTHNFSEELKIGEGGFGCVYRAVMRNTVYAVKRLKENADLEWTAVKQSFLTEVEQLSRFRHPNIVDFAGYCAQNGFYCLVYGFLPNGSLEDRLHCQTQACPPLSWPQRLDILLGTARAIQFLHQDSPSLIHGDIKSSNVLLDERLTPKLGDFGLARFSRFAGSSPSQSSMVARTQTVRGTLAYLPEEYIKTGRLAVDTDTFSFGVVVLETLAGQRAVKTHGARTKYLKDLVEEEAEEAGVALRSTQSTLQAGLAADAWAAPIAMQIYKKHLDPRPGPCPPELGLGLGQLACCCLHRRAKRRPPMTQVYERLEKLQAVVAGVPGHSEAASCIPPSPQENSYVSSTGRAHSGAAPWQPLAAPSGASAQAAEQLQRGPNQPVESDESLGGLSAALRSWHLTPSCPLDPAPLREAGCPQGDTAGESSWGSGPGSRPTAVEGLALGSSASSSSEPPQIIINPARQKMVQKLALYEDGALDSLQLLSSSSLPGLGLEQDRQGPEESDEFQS

IC50 (IRAK-1) | IC50 (IRAK-4) | IC50 (PDK1) | Structure (SMILES)
100 to 10000 nM | 1 to 100 nM | – | Nc1ncc(-c2cnn(C3CCNCC3)c2)cc1-c1nc2ccccc2[nH]1 [Compound A114, 3-(1H-Benzimidazol-2-yl)-5-(1-piperidin-4-yl-1H-pyrazol-4-yl)pyridin-2-ylamine]
– | – | 1 to 100 nM | Cn1cc(-c2cnc(N)c(-c3nc4cc(CC(N)=O)ccc4[nH]3)c2)cn1 [Compound A120, 2-{2-[2-amino-5-(1-methyl-1H-pyrazol-4-yl)pyridin-3-yl]-1H-benzimidazol-5-yl}acetamide]
1 to 100 nM | 100 to 10000 nM | – | COc1cc2[nH]c(-c3cc(-c4cnn(CC(=O)N5CCCCC5)c4)cnc3N)nc2cc1F [Compound A30, 2-{4-[6-amino-5-(5-fluoro-6-methoxy-1H-benzimidazol-2-yl)pyridin-3-yl]pyrazol-1-yl}-1-piperidin-1-ylethanone]
100 to 10000 nM | 100 to 10000 nM | – | CCn1cc(-c2cnc(N)c(-c3nc4ccc(OC)cc4[nH]3)c2)cn1 [Compound A105, 5-(1-Ethyl-1H-pyrazol-4-yl)-3-(6-methoxy-1H-benzimidazol-2-yl)pyridin-2-ylamine]
100 to 10000 nM | > 10000 nM | – | Cn1cc(-c2cnc(N)c(-c3nc4c(F)cc(F)cc4[nH]3)c2)cn1 [Compound A76]
– | – | 1 to 100 nM | Nc1ncc(-c2cnn(C3CCNCC3)c2)cc1-c1nc2cc3[nH]c(=O)[nH]c3cc2[nH]1 [Compound A55]
100 to 10000 nM | 100 to 10000 nM | – | Cc1cccc2nc(-c3cc(-c4cnn(CCN5CCOCC5)c4)cnc3N)[nH]c12 [Compound A48]
100 to 10000 nM | 100 to 10000 nM | – | Cn1cc(-c2cnc(N)c(-c3nc4ccccc4[nH]3)c2)cn1 [Compound A34]
– | – | 1 to 100 nM | CC1CC(=O)NN=C1c1ccc2[nH]c(-c3cc(-c4cnn(CC(=O)N5CCN(C)CC5)c4)cnc3N)nc2c1 (centres unmarked) [Compound A26, 6-[2-(2-Amino-5-{1-[2-(4-methylpiperazin-1-yl)-2-oxoethyl]-1H-pyrazol-4-yl}-pyridin-3-yl)-1H-benzimidazol-5-yl]-5-methyl-4,5-dihydro-2H-pyridazin-3-one]
100 to 10000 nM | 100 to 10000 nM | – | COc1ccc2nc(-c3cc(-c4cnn(CCCN(C)C)c4)cnc3N)[nH]c2c1 [Compound A96, 5-[1-(3-Dimethylaminopropyl)-1H-pyrazol-4-yl]-3-(6-methoxy-1H-benzimidazol-2-yl)pyridin-2-ylamine]
100 to 10000 nM | 100 to 10000 nM | – | COc1cc2nc(-c3cc(-c4cnn(C5CCNCC5)c4)cnc3N)[nH]c2cc1OC [Compound A66]
100 to 10000 nM | 100 to 10000 nM | – | COc1ccc2nc(-c3cc(-c4cnn(CCN(C)C)c4)cnc3N)[nH]c2c1 [Compound A94, 5-[1-(2-Dimethylaminoethyl)-1H-pyrazol-4-yl]-3-(6-methoxy-1H-benzimidazol-2-yl)pyridin-2-ylamine]
100 to 10000 nM | 100 to 10000 nM | – | Nc1ncc(-c2cnn(C3CCNCC3)c2)cc1-c1nc2cc(S(N)(=O)=O)ccc2[nH]1 [Compound A62]
100 to 10000 nM | 100 to 10000 nM | – | Cn1cc(-c2cnc(N)c(-c3nc4cc5cn[nH]c5cc4[nH]3)c2)cn1 [Compound A115, 3-(1,7-Dihydroimidazo[4,5-f]indazol-6-yl)-5-(1-methyl-1H-pyrazol-4-yl)pyridin-2-ylamine]
– | – | 1 to 100 nM | Cn1cc(-c2cnc(N)c(-c3nc4ccc(CCN)cc4[nH]3)c2)cn1 [Compound A64]
– | – | 1 to 100 nM | CC1CC(=O)NN=C1c1ccc2[nH]c(-c3cc(-c4cnn(CC(=O)O)c4)cnc3N)nc2c1 (centres unmarked) [Compound A24, (4-{6-amino-5-[5-(4-methyl-6-oxo-1,4,5,6-tetrahydropyridazin-3-yl)-1H-benzimidazol-2-yl]pyridin-3-yl}pyrazol-1-yl)acetic acid]
100 to 10000 nM | 100 to 10000 nM | – | Nc1ccc(-c2cnc(N)c(-c3nc4ccccc4[nH]3)c2)cn1 [Compound A35]
100 to 10000 nM | 100 to 10000 nM | – | Cc1cc(Cl)cc2nc(-c3cc(-c4cnn(C5CCNCC5)c4)cnc3N)[nH]c12 [Compound A72]
1 to 100 nM | 1 to 100 nM | – | COCCNC(=O)c1ccc(-c2cnc(N)c(-c3nc4ccc(OC)cc4[nH]3)c2)s1 [Compound A130, N-(2-methoxyethyl)-5-[6-amino-5-(6-methoxy-1H-benzimidazol-2-yl)pyridin-3-yl]thiophene-2-carboxamide]
– | – | 1 to 100 nM | CC1CC(=O)NN=C1c1ccc2[nH]c(-c3cc(-c4cnn(C5CCNCC5)c4)cnc3N)nc2c1 (centres unmarked) [Compound A17, 6-{2-[2-amino-5-(1-piperidin-4-yl-1H-pyrazol-4-yl)-pyridin-3-yl]-1H-benzimidazol-5-yl}-5-methyl-4,5-dihydro-2H-pyridazin-3-one]
100 to 10000 nM | 1 to 100 nM | – | Nc1ncc(-c2cnn(C3CCNCC3)c2)cc1-c1nc2ccc(Cl)cc2[nH]1 [Compound A70]
100 to 10000 nM | 100 to 10000 nM | – | Cn1cc(-c2cnc(N)c(-c3nc4ccc(-c5ccc(=O)[nH]n5)cc4[nH]3)c2)cn1 [Compound A8, 6-{2-[2-Amino-5-(1-methyl-1H-pyrazol-4-yl)-pyridin-3-yl]-3H-benzimidazol-5-yl}-2H-pyridazin-3-one]
– | – | 1 to 100 nM | CC1CC(=O)NN=C1c1ccc2[nH]c(-c3cc(-c4cnn(CC(=O)N(C)C)c4)cnc3N)nc2c1 (centres unmarked) [Compound A25, 2-(4-{6-amino-5-[5-(4-methyl-6-oxo-1,4,5,6-tetrahydropyridazin-3-yl)-1H-benzimidazol-2-yl]pyridin-3-yl}pyrazol-1-yl)-N,N-dimethylacetamide]
100 to 10000 nM | 100 to 10000 nM | – | Cc1cccc2nc(-c3cc(-c4cnn(C)c4)cnc3N)[nH]c12 [Compound A42]
– | – | 100 to 10000 nM | CC(O)(c1ccccc1)c1ccc2[nH]c(-c3cc(-c4cnn(CCN5CCOCC5)c4)cnc3N)nc2c1 (centres unmarked) [Compound A150, 1-(2-{2-Amino-5-[1-(2-morpholin-4-ylethyl)-1H-pyrazol-4-yl]pyridin-3-yl}-1H-benzimidazol-5-yl)-1-phenylethanol]
100 to 10000 nM | 100 to 10000 nM | – | Nc1ncc(-c2ccncc2)cc1-c1nc2ccccc2[nH]1 [Compound A32]

— patent publication US8648201B2, “Aminopyridine derivatives for treating tumors and inflammatory diseases” (MERCK PATENT GmbH, priority 2009, dated 2014)
